ChEMBL document CHEMBL5724914, “Linking interpersonal differences in gut microbiota composition and drug biotransformation activity” (2024)
Blank lines part the entries; values can stand above or below the molecule they belong to.

Tests used:
[1] = (§1) The drug is tested on Z-006 corresponding to mouse gut metagenome with ENA study accession number: PRJEB37062 and ENA sample accession number: ERS12561806 for biotransformation under anaerobic condition. The drug concentrations were measured over 9 timepoints collected between 0 and 24 hours of incubation by liquid-chromatography-coupled mass spectrometry (LC–MS); conditions: 2 µM
[2] = as §1, with “Z-021” for “Z-006”, “to” for “to mouse gut”, “ERS12561820” for “ERS12561806”; conditions: 2 µM
[3] = as §1, with “Z-023” for “Z-006”, “to” for “to mouse gut”, “ERS12561822” for “ERS12561806”; conditions: 2 µM
[4] = human gut metagenome, 24 h, 2 µM
[5] = human gut metagenome, 24 h, 2 µM; remark: listed apart in the source
[6] = as §1, with “WLS-370” for “Z-006”, “human” for “mouse”, “ERS12561793” for “ERS12561806”; conditions: 2 µM
[7] = as §1, with “WLS-098” for “Z-006”, “human” for “mouse”, “ERS12561754” for “ERS12561806”; conditions: 2 µM
[8] = as §1, with “Z-018” for “Z-006”, “pig” for “mouse”, “ERS12561817” for “ERS12561806”; conditions: 2 µM
[9] = as §1, with “WLS-086” for “Z-006”, “human” for “mouse”, “ERS12561752” for “ERS12561806”; conditions: 2 µM
[10] = as §1, with “WLS-010” for “Z-006”, “human” for “mouse”, “ERS12561743” for “ERS12561806”; conditions: 2 µM
[11] = as §1, with “WLS-082” for “Z-006”, “human” for “mouse”, “ERS12561751” for “ERS12561806”; conditions: 2 µM
[12] = as §1, with “WLS-170” for “Z-006”, “human” for “mouse”, “ERS12561762” for “ERS12561806”; conditions: 2 µM
[13] = as §1, with “Z-028” for “Z-006”, “ERS12561827” for “ERS12561806”; conditions: 2 µM
[14] = as §1, with “Z-005” for “Z-006”, “to” for “to mouse gut”, “ERS12561805” for “ERS12561806”; conditions: 2 µM
[15] = as §1, with “Z-010” for “Z-006”, “to” for “to mouse gut”, “ERS12561810” for “ERS12561806”; conditions: 2 µM
[16] = as §1, with “Z-013” for “Z-006”, “rabbit” for “mouse”, “ERS12561813” for “ERS12561806”; conditions: 2 µM
[17] = human gut metagenome, 24 h, 2 µM; remark: listed apart in the source
[18] = human gut metagenome, 24 h, 2 µM; remark: listed apart in the source
[19] = human gut metagenome, 24 h, 2 µM; remark: listed apart in the source
[20] = human gut metagenome, 24 h, 2 µM; remark: listed apart in the source
Also: call rule not given here.

Compound: CCCN1C[C@H](CSC)C[C@@H]2c3cccc4[nH]cc(c34)C[C@H]21.CS(=O)(=O)O [PERGOLIDE MESYLATE]
Bacterial Biotransformation [1]: Compound NOT metabolized
Bacterial Biotransformation [2]: Compound metabolized
Bacterial Biotransformation [3]: Compound NOT metabolized
Bacterial Biotransformation [4]: Compound NOT metabolized
Bacterial Biotransformation [5]: Compound NOT metabolized
Bacterial Biotransformation [6]: Compound metabolized
Bacterial Biotransformation [7]: Compound NOT metabolized
Bacterial Biotransformation [8]: Compound NOT metabolized
Bacterial Biotransformation [9]: Compound metabolized
Bacterial Biotransformation [10]: Compound NOT metabolized
Bacterial Biotransformation [11]: Compound NOT metabolized
Bacterial Biotransformation [12]: Compound NOT metabolized
Bacterial Biotransformation [13]: Compound NOT metabolized
Bacterial Biotransformation [14]: Compound NOT metabolized
Bacterial Biotransformation [15]: Compound NOT metabolized
Bacterial Biotransformation [16]: Compound NOT metabolized
Bacterial Biotransformation [17]: Compound NOT metabolized
Bacterial Biotransformation [18]: Compound NOT metabolized
Bacterial Biotransformation [19]: Compound NOT metabolized
Bacterial Biotransformation [20]: Compound NOT metabolized

Compound: CC(C)(C)N.CCC[C@H](N[C@@H](C)C(=O)N1[C@H](C(=O)O)C[C@@H]2CCCC[C@@H]21)C(=O)OCC [PERINDOPRIL ERBUMINE]
Bacterial Biotransformation [1]: Compound NOT metabolized
Bacterial Biotransformation [2]: Compound NOT metabolized
Bacterial Biotransformation [3]: Compound metabolized
Bacterial Biotransformation [4]: Compound metabolized
Bacterial Biotransformation [5]: Compound metabolized
Bacterial Biotransformation [6]: Compound metabolized
Bacterial Biotransformation [7]: Compound metabolized
Bacterial Biotransformation [8]: Compound metabolized
Bacterial Biotransformation [9]: Compound metabolized
Bacterial Biotransformation [10]: Compound metabolized
Bacterial Biotransformation [11]: Compound metabolized
Bacterial Biotransformation [12]: Compound metabolized
Bacterial Biotransformation [13]: Compound NOT metabolized
Bacterial Biotransformation [14]: Compound metabolized
Bacterial Biotransformation [15]: Compound metabolized
Bacterial Biotransformation [16]: Compound NOT metabolized
Bacterial Biotransformation [17]: Compound NOT metabolized
Bacterial Biotransformation [18]: Compound metabolized
Bacterial Biotransformation [19]: Compound metabolized
Bacterial Biotransformation [20]: Compound metabolized

Compound: C=C[C@H]1CN2CC[C@H]1C[C@H]2[C@H](O)c1ccnc2ccc(OC)cc12.C=C[C@H]1CN2CC[C@H]1C[C@H]2[C@H](O)c1ccnc2ccc(OC)cc12.O.O.O=S(=O)(O)O [QUININE SULFATE]
Bacterial Biotransformation [1]: Compound NOT metabolized
Bacterial Biotransformation [2]: Compound NOT metabolized
Bacterial Biotransformation [3]: Compound NOT metabolized
Bacterial Biotransformation [4]: Compound NOT metabolized
Bacterial Biotransformation [5]: Compound NOT metabolized
Bacterial Biotransformation [6]: Compound NOT metabolized
Bacterial Biotransformation [7]: Compound metabolized
Bacterial Biotransformation [8]: Compound NOT metabolized
Bacterial Biotransformation [9]: Compound metabolized
Bacterial Biotransformation [10]: Compound NOT metabolized
Bacterial Biotransformation [11]: Compound NOT metabolized
Bacterial Biotransformation [12]: Compound metabolized
Bacterial Biotransformation [13]: Compound NOT metabolized
Bacterial Biotransformation [14]: Compound NOT metabolized
Bacterial Biotransformation [15]: Compound metabolized
Bacterial Biotransformation [16]: Compound NOT metabolized
Bacterial Biotransformation [17]: Compound metabolized
Bacterial Biotransformation [18]: Compound NOT metabolized
Bacterial Biotransformation [19]: Compound metabolized
Bacterial Biotransformation [20]: Compound metabolized

Compound: CCN(C)C(=O)Oc1cccc([C@H](C)N(C)C)c1.O=C(O)C(O)C(O)C(=O)O [RIVASTIGMINE TARTRATE]
Bacterial Biotransformation [1]: Compound NOT metabolized
Bacterial Biotransformation [2]: Compound NOT metabolized
Bacterial Biotransformation [3]: Compound NOT metabolized
Bacterial Biotransformation [4]: Compound NOT metabolized
Bacterial Biotransformation [5]: Compound NOT metabolized
Bacterial Biotransformation [6]: Compound NOT metabolized
Bacterial Biotransformation [7]: Compound NOT metabolized
Bacterial Biotransformation [8]: Compound NOT metabolized
Bacterial Biotransformation [9]: Compound NOT metabolized
Bacterial Biotransformation [10]: Compound NOT metabolized
Bacterial Biotransformation [11]: Compound NOT metabolized
Bacterial Biotransformation [12]: Compound NOT metabolized
Bacterial Biotransformation [13]: Compound NOT metabolized
Bacterial Biotransformation [14]: Compound NOT metabolized
Bacterial Biotransformation [15]: Compound NOT metabolized
Bacterial Biotransformation [16]: Compound NOT metabolized
Bacterial Biotransformation [17]: Compound NOT metabolized
Bacterial Biotransformation [18]: Compound NOT metabolized
Bacterial Biotransformation [19]: Compound metabolized
Bacterial Biotransformation [20]: Compound metabolized

More lines, now with the values ahead:

Bacterial Biotransformation [1]: Compound NOT metabolized
Bacterial Biotransformation [2]: Compound metabolized
Bacterial Biotransformation [3]: Compound metabolized
Bacterial Biotransformation [4]: Compound NOT metabolized
Bacterial Biotransformation [5]: Compound metabolized
Bacterial Biotransformation [6]: Compound metabolized
Bacterial Biotransformation [7]: Compound NOT metabolized
Bacterial Biotransformation [8]: Compound NOT metabolized
Bacterial Biotransformation [9]: Compound metabolized
Bacterial Biotransformation [10]: Compound metabolized
Bacterial Biotransformation [11]: Compound NOT metabolized
Bacterial Biotransformation [12]: Compound NOT metabolized
Bacterial Biotransformation [13]: Compound NOT metabolized
Bacterial Biotransformation [14]: Compound NOT metabolized
Bacterial Biotransformation [15]: Compound NOT metabolized
Bacterial Biotransformation [16]: Compound NOT metabolized
Bacterial Biotransformation [17]: Compound metabolized
Bacterial Biotransformation [18]: Compound NOT metabolized
Bacterial Biotransformation [19]: Compound NOT metabolized
Bacterial Biotransformation [20]: Compound NOT metabolized
Compound: O=C(NC(Cc1cc(=O)[nH]c2ccccc12)C(=O)O)c1ccc(Cl)cc1 (stereo not given) [REBAMIPIDE]

Bacterial Biotransformation [1]: Compound metabolized
Bacterial Biotransformation [2]: Compound metabolized
Bacterial Biotransformation [3]: Compound metabolized
Bacterial Biotransformation [4]: Compound metabolized
Bacterial Biotransformation [5]: Compound metabolized
Bacterial Biotransformation [6]: Compound metabolized
Bacterial Biotransformation [7]: Compound metabolized
Bacterial Biotransformation [8]: Compound NOT metabolized
Bacterial Biotransformation [9]: Compound metabolized
Bacterial Biotransformation [10]: Compound metabolized
Bacterial Biotransformation [11]: Compound metabolized
Bacterial Biotransformation [12]: Compound metabolized
Bacterial Biotransformation [13]: Compound metabolized
Bacterial Biotransformation [14]: Compound metabolized
Bacterial Biotransformation [15]: Compound metabolized
Bacterial Biotransformation [16]: Compound NOT metabolized
Bacterial Biotransformation [17]: Compound metabolized
Bacterial Biotransformation [18]: Compound NOT metabolized
Bacterial Biotransformation [19]: Compound metabolized
Bacterial Biotransformation [20]: Compound metabolized
Compound: CCOc1cc(CC(=O)N[C@@H](CC(C)C)c2ccccc2N2CCCCC2)ccc1C(=O)O [REPAGLINIDE]

Bacterial Biotransformation [1]: Compound NOT metabolized
Bacterial Biotransformation [2]: Compound NOT metabolized
Bacterial Biotransformation [3]: Compound NOT metabolized
Bacterial Biotransformation [4]: Compound NOT metabolized
Bacterial Biotransformation [5]: Compound NOT metabolized
Bacterial Biotransformation [6]: Compound NOT metabolized
Bacterial Biotransformation [7]: Compound NOT metabolized
Bacterial Biotransformation [8]: Compound NOT metabolized
Bacterial Biotransformation [9]: Compound NOT metabolized
Bacterial Biotransformation [10]: Compound NOT metabolized
Bacterial Biotransformation [11]: Compound NOT metabolized
Bacterial Biotransformation [12]: Compound metabolized
Bacterial Biotransformation [13]: Compound NOT metabolized
Bacterial Biotransformation [14]: Compound NOT metabolized
Bacterial Biotransformation [15]: Compound NOT metabolized
Bacterial Biotransformation [16]: Compound NOT metabolized
Bacterial Biotransformation [17]: Compound NOT metabolized
Bacterial Biotransformation [18]: Compound NOT metabolized
Bacterial Biotransformation [19]: Compound NOT metabolized
Bacterial Biotransformation [20]: Compound NOT metabolized
Compound: CC(N)C12CC3CC(CC(C3)C1)C2 (stereo not given) [RIMANTADINE]
